Reference: US8211945B2, “Carba-sugar amine derivative and glycolipid metabolic disorder treating agent containing the same as active ingredient” (Seikagaku Corporation, priority 2001, dated 2012)
Numbering of substitutions follows the chain as printed.

What was measured:
Assay in all cases: Mutant β-galactosidase activity in model cells, 4 days culture
Format in all cases: cell-based
[1] = biological target: T1, human mutant β-galactosidase R201C (Homo sapiens, UniProt P16278, R201C)
T1 construct: from tissue
T1 sequence (P16278 29-677 R201C): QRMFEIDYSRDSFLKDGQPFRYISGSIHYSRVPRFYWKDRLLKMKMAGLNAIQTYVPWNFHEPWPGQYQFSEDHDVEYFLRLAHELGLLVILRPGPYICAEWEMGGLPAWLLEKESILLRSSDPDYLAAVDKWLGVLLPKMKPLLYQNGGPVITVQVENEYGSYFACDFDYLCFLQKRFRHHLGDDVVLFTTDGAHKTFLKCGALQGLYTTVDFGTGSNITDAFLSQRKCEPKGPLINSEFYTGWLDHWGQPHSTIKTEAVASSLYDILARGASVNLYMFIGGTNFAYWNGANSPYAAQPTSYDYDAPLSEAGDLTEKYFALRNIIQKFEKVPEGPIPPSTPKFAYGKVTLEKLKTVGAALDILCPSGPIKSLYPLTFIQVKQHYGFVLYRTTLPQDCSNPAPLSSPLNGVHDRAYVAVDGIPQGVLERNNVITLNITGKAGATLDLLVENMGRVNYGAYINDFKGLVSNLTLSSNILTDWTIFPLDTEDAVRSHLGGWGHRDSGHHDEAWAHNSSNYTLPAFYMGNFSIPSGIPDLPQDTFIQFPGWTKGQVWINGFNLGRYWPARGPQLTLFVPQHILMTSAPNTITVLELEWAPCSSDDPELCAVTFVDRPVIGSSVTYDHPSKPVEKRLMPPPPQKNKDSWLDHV

[2] = biological target: T2, human mutant β-galactosidase W273L (Homo sapiens, UniProt P16278, W273L)
T2 construct: expressed in transfected cells; host or cells: SV40-immortalized skin fibroblasts of a β-galactosidase-deficient knockout mouse
T2 sequence (P16278 29-677 W273L): T1 sequence (P16278 29-677 R201C) with C173R, W245L

[3] = biological target: T3, human mutant β-galactosidase T82M (Homo sapiens, UniProt P16278, T82M)
T3 construct: expressed in transfected cells; host or cells: SV40-immortalized skin fibroblasts of a β-galactosidase-deficient knockout mouse
T3 sequence (P16278 29-677 T82M): T1 sequence (P16278 29-677 R201C) with T54M, C173R

| enzyme activity, Control ([1]; transferred gene R201C, control substance 0.5 mM NB-DGJ) | enzyme activity, Control ([2]; transferred gene W273L, control substance 0.5 mM NB-DGJ) | enzyme activity, Control ([3]; transferred gene T82M, control substance 0.5 mM NB-DGJ) | SMILES | enzyme activity increased in comparison with the control ([1]; R201C, 0.2 μM) [%] | Relative ratio (×100%) ([1]; R201C, substance 18 vs control) | enzyme activity ([1]; transferred gene R201C, 0.2 μM, 4 days) | enzyme activity increased in comparison with the control ([2]; W273L, 0.2 μM) [%] | Relative ratio (×100%) ([2]; W273L, substance 18 vs control) | enzyme activity ([2]; transferred gene W273L, 0.2 μM, 4 days) | Relative ratio (×100%) ([3]; T82M, substance 18 vs control) | enzyme activity ([3]; transferred gene T82M, 0.2 μM, 4 days) |
| --- | --- | --- | --- | --- | --- | --- | --- | --- | --- | --- | --- |
| 20.16 | 11.83 | 0.67 | CCCCN1C[C@H](O)[C@@H](O)[C@@H](O)[C@H]1CO [Control, N-(n-butyl)-deoxygalactonojirimycin, reference compound] | – | – | – | – | – | – | – | – |
| – | – | – | CCCCCCCCN[C@@H]1C=C(CO)[C@H](O)C(O)[C@@H]1O (stereo partly drawn) [Substance 18, N-octyl-5a-carba-α-L-arabino-hexo-5(5a)-enopyranosylamine] | ≥ 150 | 2.43 ×100% | 48.88 | ≥ 150 | 1.50 ×100% | 17.71 | 0.88 ×100% | 0.59 |
